This data set in a line: Brain penetration (Kp,uu) in CD-1 mice, with plasma and brain tissue binding by equilibrium dialysis. Type of data set: in vivo. The note with it: mouse, brain and plasma (unbound), male CD-1 mice, single IV bolus 1 mg/kg. On the procedure: The compounds disclosed herein were tested on CD-1 mice for brain penetration (Kp, uu) according to the following procedures.
Nine male CD-1 mice were administered TEST COMPOUND by single intravenous bolus administration at 1 mg/kg. The vehicle used for IV study was 5% DMSO, 5% solutol, 20% PEG300 and 70% water. The detailed dosing and sampling regimens are described in the following tables.
1.0 mg of test compound was accurately weighed into a glass vial, and slowly added with 104 μL of DMSO and vortexed for 1 min. Then 104 μL of solutol was added and vortexed for 1 min. Then 415 μL of PEG300 was added and vortexed for 1 min. Then 1000 μL of water was added and vortexed for 1 min. Finally, 451 μL of water was added and vortexed for 1 min to get a clear solution.
The body weights were in the range from 28.81 to 31.25 g for males on the first dosing day. All animals received a single intravenous bolus administration of TEST COMPOUND from the tail vein.
Each blood collection (about 0.06 mL per time point) was performed from saphenous vein of each animal into pre-chilled commercial K2-EDTA tubes as anti-coagulant and placed on wet ice until centrifugation.
Plasma samples were then prepared by centrifuging the blood samples at approximately 4° C., 3200×g for 10 minutes. All plasma samples were then quickly frozen over dry ice and kept at −60° C. or lower until LC-MS/MS analysis.
Brain tissue was homogenized using homogenizing buffer (15 mM PBS (pH7.4): MeOH=2:1) at the ratio of 1:9 (1 g tissue with 9 mL buffer, the dilution ratio is 10). The tissue homogenate was kept at −60° C. or lower until LC-MS/MS analysis.
The concentrations of TEST COMPOUND in plasma and brain were determined by using an LC-MS/MS method.
The plasma and brain concentration of TEST COMPOUND in study animals was subjected to a non-compartmental pharmacokinetic analysis by using the Phoenix WinNonlin software program (version 6.3 or above, Pharsight). The linear/log trapezoidal rule was applied in obtaining the PK parameters.
Individual plasma and brain concentration values that were below the lower limit of quantitation (LLOQ) were excluded from the PK parameter calculation. The nominal dose levels and nominal sampling times were used in the calculation of all pharmacokinetic parameters.
Mouse Kp, uu=(% free in mouse brain*concentration in mouse brain)/(% free in mouse plasma*concentration in mouse plasma)
The dialysis apparatus was assembled according to the manufacturer's instruction. Each Cell was filled with 120 μL of spiked plasma sample and dialyzed against equal volume of dialysis buffer (PBS). The assay was performed in duplicate. The dialysis plates were sealed and incubated in an incubator at 37° C. with 5% CO2 and rotated at 100 rpm for 6 hours. At the end of incubation, the seals were removed and 50 μL of samples from both buffer and plasma chambers were transferred to a 96-well plate.
All calculations were carried out using Microsoft Excel. The concentrations of test compound and control compound in the buffer and plasma chambers were determined from peak area ratios (PAR) of analyte to internal standard. Protein binding (% unbound and % bound) and recovery (% recovery) of test and control compounds was calculated as follows:
• 1. Thawing of the frozen brain (stored at −80° C.) • Frozen brain tissue was thawed at room temperature in a bath. Only brain tissue was used that was thawed no more than once. • 2. Preparation of brain tissue homogenate • Brain tissue homogenate was prepared by diluting one quantity (g) of the whole brain tissue with three volumes (mL) of buffer (PBS, pH 7.4) and homogenizing the mixture using a tissue homogenizer. Brain tissue homogenate was frozen at −80° C. for later use/comparison. • 3. Preparation of working solutions • The working solutions of test compound and the control compound propranolol were prepared in dimethyl sulfoxide (DMSO) at the concentration of 200 μM. […]
(In equilibrium dialysis only unbound substance equilibrates across the membrane.)
Regarding `Cc1n[nH]c2c1N=C(c1c(F)cccc1F)Nc1ccc(N3CCOCC3)cc1-2` [Example 29, 4-(5-(2,6-difluorophenyl)-3-methyl-1,6-dihydrobenzo[d]pyrazolo[3,4-f][1,3]diazepin-9-yl)morpholine], the Kp uu was > 0.4. For the compound `Cc1n[nH]c2c1N=C(c1c(F)cccc1F)Nc1ccc(-c3cnn(C(F)F)c3)cc1-2` [Example 13, 9-[1-(difluoromethyl)pyrazol-4-yl]-5-(2,6-difluorophenyl)-3-methyl-1,6-dihydropyrazolo[4,3-d][1,3]benzodiazepine], the Kp uu is > 0.4. Then `Cc1n[nH]c2c1N=C(c1c(F)cccc1F)Nc1cnc(-c3ccn(C(F)F)n3)cc1-2` [Example 12, 13-[1-(difluoromethyl)pyrazol-3-yl]-8-(2,6-difluorophenyl)-5-methyl-3,4,7,9,12-pentazatricyclo[8.4.0.02,6]tetradeca-1(10),2(6),4,7,11,13-hexaene], with < 0.2; and `Cc1n[nH]c2c1N=C(c1c(F)cccc1F)Nc1c-2cc(N2CCN(CC(C)F)CC2)nc1C` (racemic) [Example 20, 8-(2,6-difluorophenyl)-13-[4-(2-fluoropropyl)piperazin-1-yl]-5,11-dimethyl-3,4,7,9,12-pentazatricyclo[8.4.0.02,6]tetradeca-1(10),2(6),4,7,11,13-hexaene], with 0.2 to 0.4; and `[2H]C([2H])([2H])c1n[nH]c2c1N=C(c1c(F)cccc1F)Nc1ccc(N3CCOCC3)cc1-2` [Example 33, 4-[5-(2,6-difluorophenyl)-3-(trideuteriomethyl)-1,6-dihydropyrazolo[4,3-d][1,3]benzodiazepin-9-yl]morpholine], with 0.2 to 0.4. Then `Cc1n[nH]c2c1N=C(c1c(F)cc(F)cc1F)Nc1ccc(N3CCOCC3)cc1-2` [Example 27, 4-[3-methyl-5-(2,4,6-trifluorophenyl)-1,6-dihydropyrazolo[4,3-d][1,3]benzodiazepin-9-yl]morpholine], with 0.2 to 0.4.

(Values after patent publication US20240208972A1, “LRRK2 INHIBITORS AND USES THEREOF” (NEURON23, INC., priority 2022, published 2024).)
